Tested on: MCF-7 human breast adenocarcinoma cells
Experiment: Cytotoxicity, SRB binding assay
Type: cell-based
Conditions: MCF7, inhibition of cell proliferation, 48 h, read-out: MCF-7 IC50
Protocol: To further assess the biological efficacies of the Compounds in intact cells, each Compound was evaluated for cytotoxicity using human cancer cell lines. These experiments followed methods that have been extensively used. Cell lines tested included MCF-7 human breast adenocarcinoma cells and MCF-10A non-transformed human breast epithelial cells. The indicated cell lines were treated with varying doses of the test Compound for 48 h. Cell survival was then determined using the SRB binding assay (Skehan et al., 1990, J Natl Cancer Inst 82: 1107), and the concentration of compound that inhibited proliferation by 50% (the IC50) was calculated. Values (in μM) represent the mean±sd for replicate trials.

SMILES | IC50 [µM]
O=C(NCc1cccc(C(F)(F)F)c1)C12CC3CC(C1)CC(c1ccc(Cl)cc1)(C3)C2 [Compound 15, 3-(4-Chloro-phenyl)-adamantane-1-carboxylic acid 3-trifluoromethyl-benzylamide] | > 112
O=C(NCc1ccc(C(F)(F)F)cc1F)C12CC3CC(C1)CC(c1ccc(Cl)cc1)(C3)C2 [Compound 19, 3-(4-Chloro-phenyl)-adamantane-1-carboxylic acid 2-fluoro-4-trifluoromethyl-benzylamide] | > 108
CC(C)NCC12CC3CC(C1)CC(c1ccc(Cl)cc1)(C3)C2 [Compound 75, [3-(4-Chloro-phenyl)-adamantan-1-ylmethyl]-isopropyl-amine] | 11
CC(Nc1ccccc1)C12CC3CC(CC(c4ccc(F)cc4)(C3)C1)C2 (stereo not drawn) [Compound 94, {1-[3-(4-Fluoro-phenyl)-adamantan-1-yl]-ethyl}-phenyl-amine] | 0.6
CC(NCc1ccccc1)C12CC3CC(CC(c4ccccc4)(C3)C1)C2 (stereo not drawn) [Compound 97, Benzyl-[1-(3-phenyl-adamantan-1-yl)-ethyl]-amine] | 0.5
CC(NCc1ccccc1)C12CC3CC(CC(c4ccc(F)cc4)(C3)C1)C2 (stereo not drawn) [Compound 98, Benzyl-{1-[3-(4-fluoro-phenyl)-adamantan-1-yl]-ethyl}-amine] | 3
CC(NCc1ccccc1)C12CC3CC(CC(c4ccc(Cl)cc4)(C3)C1)C2 (stereo not drawn) [Compound 99, Benzyl-{1-[3-(4-chloro-phenyl)-adamantan-1-yl]-ethyl}-amine] | 0.7
CC(NCc1ccc(C(C)(C)C)cc1)C12CC3CC(CC(c4ccc(Cl)cc4)(C3)C1)C2 (stereo not drawn) [Compound 100, (4-tert-Butyl-benzyl)-{1-[3-(4-chloro-phenyl)-adamantan-1-yl]-ethyl}-amine] | 0.3
CC(NC(C)C12CC3CC(CC(c4ccc(Cl)cc4)(C3)C1)C2)c1ccc(Br)cc1 (stereo not drawn) [Compound 101, [1-(4-Bromo-phenyl)-ethyl]-{1-[3-(4-chloro-phenyl)-adamantan-1-yl]-ethyl}-amine] | 10
CC(NCCc1ccc(Br)cc1)C12CC3CC(CC(C3)C1)C2 (stereo not drawn) [Compound 102, (1-Adamantan-1-yl-ethyl)-[2-(4-bromo-phenyl)-ethyl]-amine] | 2
CC(NN1CCN(C)CC1)C12CC3CC(CC(c4ccc(Cl)cc4)(C3)C1)C2 (stereo not drawn) [Compound 108, {1-[3-(4-Chloro-phenyl)-adamantan-1-yl]-ethyl}-(4-methyl-piperazin-1-yl)-amine] | 5
CC(NCc1ccncc1)C12CC3CC(CC(c4ccccc4)(C3)C1)C2 (stereo not drawn) [Compound 109, [1-(3-Phenyl-adamantan-1-yl)-ethyl]-pyridin-4-ylmethyl-amine] | 26
CC(NCc1ccc(Cl)nc1)C12CC3CC(CC(c4ccc(Cl)cc4)(C3)C1)C2 (stereo not drawn) [Compound 110, {1-[3-(4-Chloro-phenyl)-adamantan-1-yl]-ethyl}-(6-chloro-pyridin-3-ylmethyl)-amine] | 6
CC(NCCc1ccncc1)C12CC3CC(CC(c4ccc(Cl)cc4)(C3)C1)C2 (stereo not drawn) [Compound 111, {1-[3-(4-Chloro-phenyl)-adamantan-1-yl]-ethyl}-(2-pyridin-4-yl-ethyl)-amine] | 13
CC(NCc1cnc[nH]1)C12CC3CC(CC(c4ccc(Cl)cc4)(C3)C1)C2 (stereo not drawn) [Compound 112, {1-[3-(4-Chloro-phenyl)-adamantan-1-yl]-ethyl}-(3H-imidazol-4-ylmethyl)-amine] | 5
Cc1cc2cc(NC(C)C34CC5CC(CC(c6ccc(Cl)cc6)(C5)C3)C4)ccc2[nH]1 (stereo not drawn) [Compound 113, {1-[3-(4-Chloro-phenyl)-adamantan-1-yl]-ethyl}-(2-methyl-1H-indol-5-yl)-amine] | 14
CCn1c2ccccc2c2cc(CNC(C)C34CC5CC(CC(c6ccc(Cl)cc6)(C5)C3)C4)ccc21 (stereo not drawn) [Compound 115, {1-[3-(4-Chloro-phenyl)-adamantan-1-yl]-ethyl}-(9-ethyl-9H-carbazol-3-ylmethyl)-amine] | 1
CCn1c2ccccc2c2cc(C(=O)NC(C)C34CC5CC(CC(c6ccc(Cl)cc6)(C5)C3)C4)ccc21 (stereo not drawn) [Compound 116, 9-Ethyl-9H-carbazole-3-carboxylic acid {1-[3-(4-chloro-phenyl)-adamantan-1-yl]-ethyl}-amide] | 6
CC(NC(=O)Nc1ccc(Cl)c(C(F)(F)F)c1)C12CC3CC(CC(c4ccc(Cl)cc4)(C3)C1)C2 (stereo not drawn) [Compound 117, 1-{1-[3-(4-Chloro-phenyl)-adamantan-1-yl]-ethyl}-3-(4-chloro-3-trifluoromethyl-phenyl)-urea] | 3
CC(NCc1cc(Br)cs1)C12CC3CC(CC(c4ccc(Cl)cc4)(C3)C1)C2 (stereo not drawn) [Compound 119, (4-Bromo-thiophen-2-ylmethyl)-{1-[3-(4-chloro-phenyl)-adamantan-1-yl]-ethyl}-amine] | 11
CC(NCc1cc(-c2ccccc2)cs1)C12CC3CC(CC(c4ccc(Cl)cc4)(C3)C1)C2 (stereo not drawn) [Compound 120, {1-[3-(4-Chloro-phenyl)-adamantan-1-yl]-ethyl}-(4-phenyl-thiophen-2-ylmethyl)-amine] | 108
O=C(/C=C/c1cc(-c2ccccc2)cs1)C12CC3CC(C1)CC(c1ccc(Cl)cc1)(C3)C2 [Compound 137, 1-[3-(4-Chloro-phenyl)-adamantan-1-yl]-3-(4-phenyl-thiophen-2-yl)-propenone] | 9

Tested on: recombinant human SK
Experiment: Inhibition of recombinant human SK, LC/MS/MS assay
Type: biochemical
Conditions: 6 μg/ml compound
Protocol: SK activity is measured by incubation of the recombinant SK with [^3H]sphingosine and 1 mM ATP under defined conditions, followed by extraction of the assay mixture with chloroform:methanol under basic conditions. […] Radioactivity in aliquots of the aqueous phase is then quantified as a measure of [^3H]S1P formation.
In an alternate assay procedure, the recombinant human SK was incubated with unlabeled sphingosine and ATP as described above. After 30 minutes, the reactions were terminated by the addition of acetonitrile to directly extract the newly synthesized S1P. The amount of S1P in the samples is then quantified as follows. C17 base D-erythro-sphingosine and C17 SIP are used as internal standards for sphingosine and S1P, respectively. […] The lipids are then fractionation by High-Performance Liquid Chromatography using a C8-reverse phase column eluted with 1 mM methanolic ammonium formate/2 mM aqueous ammonium formate. […] Calibration curves are generated by plotting the peak area ratios of the synthetic standards for each sphingolipid, and used to determine the normalized amounts of sphingosine and S1P in the samples.
Each Compound of this invention was tested for its ability to inhibit recombinant SK using the LC/MS/MS assay described above.

SMILES | Recombinant SK (% inhibition) [%]
O=C(NCCCc1ccccc1)C12CC3CC(C1)CC(c1ccc(Cl)cc1)(C3)C2 [Compound 48, 3-(4-Chloro-phenyl)-adamantane-1-carboxylic acid (3-phenyl-propyl)-amide] | 36
O=C1CCCN1CCCNC(=O)C12CC3CC(C1)CC(c1ccc(Cl)cc1)(C3)C2 [Compound 55, 3-(4-Chloro-phenyl)-adamantane-1-carboxylic acid [3-(2-oxo-pyrrolidin-1-yl)-propyl]-amide] | 8
O=C(NCCN1CCNCC1)C12CC3CC(C1)CC(c1ccc(Cl)cc1)(C3)C2 [Compound 59, 3-(4-Chloro-phenyl)-adamantane-1-carboxylic acid (2-piperazin-1-yl-ethyl)-amide] | 0
O=C(NCc1ccncc1)C12CC3CC(C1)CC(c1ccc(F)cc1)(C3)C2 [Compound 61, 3-(4-Fluoro-phenyl)-adamantane-1-carboxylic acid (pyridin-4-ylmethyl)-amide] | 58
O=C(NCCCn1ccnc1)C12CC3CC(C1)CC(c1ccc(Cl)cc1)(C3)C2 [Compound 65, 3-(4-Chloro-phenyl)-adamantane-1-carboxylic acid (3-imidazol-1-yl-propyl)-amide] | 3
O=C(Nc1nnn[nH]1)C12CC3CC(C1)CC(c1ccc(Cl)cc1)(C3)C2 [Compound 67, 3-(4-Chloro-phenyl)-adamantane-1-carboxylic acid (1H-tetrazol-5-yl)-amide] | 10
FC(F)(F)c1ccc(CNCC23CC4CC(C2)CC(c2ccc(Cl)cc2)(C4)C3)cc1 [Compound 77, [3-(4-Chloro-phenyl)-adamantan-1-ylmethyl]-(4-trifluoromethyl-benzyl)-amine] | 27
Fc1ccc(CNCC23CC4CC(C2)CC(c2ccc(Cl)cc2)(C4)C3)cc1C(F)(F)F [Compound 79, [3-(4-Chloro-phenyl)-adamantan-1-ylmethyl]-(4-fluoro-3-trifluoromethyl-benzyl)-amine] | 19
FC(F)(F)Oc1ccc(CNCC23CC4CC(C2)CC(c2ccc(Cl)cc2)(C4)C3)cc1 [Compound 80, [3-(4-Chloro-phenyl)-adamantan-1-ylmethyl]-(4-trifluoromethoxy-benzyl)-amine] | 5
Clc1ccc(C23CC4CC(CC(CNCCc5cccc(Oc6ccccc6)c5)(C4)C2)C3)cc1 [Compound 81, [3-(4-Chloro-phenyl)-adamantan-1-ylmethyl]-[2-(3-phenoxy-phenyl)-ethyl]-amine] | 67
CN1CCC(NCC23CC4CC(C2)CC(c2ccc(Cl)cc2)(C4)C3)CC1 [Compound 82, [3-(4-Chloro-phenyl)-adamantan-1-ylmethyl]-(1-methyl-piperidin-4-yl)-amine] | 75
CC(C)(C)NCCCNCC12CC3CC(C1)CC(c1ccc(Cl)cc1)(C3)C2 [Compound 84, N-tert-Butyl-N′-[3-(4-chloro-phenyl)-adamantan-1-ylmethyl]-propane-1,3-diamine] | 84
Clc1ccc(C23CC4CC(CC(CNCCCN5CCCC5)(C4)C2)C3)cc1 [Compound 85, [3-(4-Chloro-phenyl)-adamantan-1-ylmethyl]-(3-pyrrolidin-1-yl-propyl)-amine] | 0
CC(NC(=O)Nc1ccc(Cl)c(C(F)(F)F)c1)C12CC3CC(CC(c4ccc(Cl)cc4)(C3)C1)C2 (stereo not drawn) [Compound 118, 1-{1-[3-(4-Chloro-phenyl)-adamantan-1-yl]-ethyl}-3-(4-chloro-3-trifluoromethyl-phenyl)-urea] | 77

Source: patent US8557800B2, “Sphingosine kinase inhibitors” (Apogee Biotechnology Corporation, priority 2005, dated 2013)
